The text below walks through data of patent publication US20160000762A1, “IMPROVING COGNITIVE FUNCTION” (THE REGENTS OF THE UNIVERSITY OF CALIFORNIA, priority 2013, published 2016).

Data set [1] in a line: Fear conditioning, wild-type mice. The data set is classed as in vivo. Particulars: 30 mg/kg daily for 2 weeks. Here is the method: Fear conditioning. Before initiating fear-conditioning tests, wild-type mice were injected daily with BTA-EG4 or vehicle for 2 weeks (n=8/group). Mice were subsequently trained by exposure to a conditioning box (context) for 3 min before administering a tone (18 s) and footshock (2 s), which were repeated twice at 1 min intervals. We performed the contextual test 24 h after training by re-exposing the mice to the conditioning context. A measurement of freezing behavior was recorded every minute for 3 min inside of the conditioning box. The cued test was conducted 3 h following the contextual test. Following a 3 min reexposure to the conditioning box, a tone (18 s) was administered and freezing behavior was measured for 1 min.

The subject of data set [2] is insulin-degrading enzyme (IDE), neprilysin (NPE). The experiment in a line: Levels of Aβ degradation enzymes (data not shown).
Another data set deals with Ras. The experiment in a line: GST-Raf1-RBD pulldown of active Ras, APP knock-out mice. The data set is classed as in vivo. On the procedure: GST-pull-down assay. To measure levels of active Ras, brain lysate homogenized with Ral buffer (25 mM Tris-HCl, pH 7.4, 250 mM NaCl, 0.5% NP40, 1.25 mM MgCl2, and 5% glycerol) from APP transgenic, APP knockout, or wild-type mice was incubated with GST-Raf-RBD purified protein coupled with GLUTATHIONE SEPHAROSE™ (Amersham) overnight at 4° C. After 24 hours, pellets were washed with Ral buffer and western blotting was conducted with anti-Ras.
Next, we investigated whether BTA-EG4 can alter Ras activity in APP KO mice by injecting control or BTA-EG4 for 2 weeks. […] Further, we examined the effect of BTA-EG4 on downstream Ras signaling in the presence or absence of APP. For this experiment, primary hippocampal neurons were transfected with GFP and APP shRNA or APP, treated with BTA-EG4 or control, and then immunostained against p-ERK or p-CREB.

For data set [3] the following is noted: Capule and Yang, 2012; Inbar et al., 2006; cited from earlier work.
Data set [4] has as its system dendritic spines. The experiment in a line: Golgi staining, dendritic spines of wild-type mice. The following applies: 30 mg/kg, 2 weeks. The data set is classed as in vivo. On the procedure: Golgi staining and morphological analysis of dendritic spines. To analyze dendritic spine density and morphology in brain, FD RAPID GOLGISTAIN KIT™ (FD NeuroTechnologies, Ellicott City, Md., USA) was used. Dissected mouse brains were immersed in Solution A and B for 2 weeks in dark conditions at room temperature and transferred into Solution C for 24 h at 4° C. Brains were sliced using a VT1000S Vibratome (Leica, Bannockburn, Ill., USA) at 150 μm thickness. Dendritic images were acquired by Axioplan 2 (Zeiss, Oberkochen, Germany) under brightfield microscopy. Spine width, length, and linear density of cortical layers II/III and CA1 of hippocampus were measured using Scion image software (Scion Corporation, Frederick, Md., USA). Images were coded, and dendritic spines counted in a blinded manner. Spines from 0.2 to 2 μm in length were included for analysis. All morphological analysis was done blind to experimental conditions.

Data set [5] relates to dendritic spines. The experiment in a line: Golgi staining, dendritic spine density and morphology in 3× Tg AD mice. Format: in vivo. On the procedure: Golgi staining and morphological analysis of dendritic spines. Dendritic spine density and morphology analyses in the brain were conducted using the FD RAPID GOLGISTAIN KIT™ (FD NeuroTechnologies, Ellicott City, Md., USA). Mouse brains were dissected, immersed in Solutions A and B (2 weeks, room temperature, dark conditions), and then transferred to Solution C (24 h, 4° C.). A VT1000S Vibratome (Leica, Bannockburn, Ill., USA) was then used to slice brains 150 μm thick. Bright-field microscopy acquired dendritic images by Axioplan 2 (Zeiss, Oberkochen, Germany). Scion image software (Scion Corporation, Frederick, Md., USA) allowed measurement of spine head width, spine length, and linear density of cortical layers II/III and CA1 of the hippocampus. Images were coded and analyzed blind to experimental conditions. To measure dendritic spine density, we included spines from 0.2 to 2 μmin length, with at least 25 apical oblique (AO) and basal (BS) dendritic observations averaged from each animal (n=4-5 brains for 2-3 months old/group and 6-10 months old/group, n=3 brains for 13-16 months old/group). To measure spine morphology, we included spines up to 1.4 μm in width and 3.2 μm in length.
BTA-EG4 alters dendritic spine density in the cortex and hippocampus. […] In the present study, we investigated whether BTA-EG4 improves dendritic spine density in a mouse model of AD. For this study, we selected the 3× Tg AD mouse model due to its ability to model the progression of human AD (Oddo et al., 2003). […] To assess its effectiveness throughout disease progression, 2-3 month, 6-10 month, and 13-16 month old 3× Tg AD mice were injected with BTA-EG4 (30 mg/kg, i.p.) or vehicle (10% DMSO) daily for 2 weeks. The 2-week duration of treatment was selected because it increased dendritic spine density and improved memory in wild-type mice (Megill et al., 2013). After the treatment, we conducted Golgi staining to measure dendritic spine density (FIGS. 10A-10J, FIGS. 15A-15H and FIGS. 16A-16B).

In the case of BTA-EG4, the “freezing, contextual test” value in data set [1] is “significantly increased”. In addition, in data set [1], the “freezing, cued test” value is given as “significantly increased”. Moreover, in data set [2], the “levels of Aβ degradation enzymes (IDE, NPE)” value is “did not alter”. Moreover, in the data set with Ras (30 mg/kg i.p., 2 weeks, CTRL (C)=100±1.22%, n=5), the “amount of active Ras” value came to 03.2±1.26%. Moreover, the Ras activity result with Ras (injected for 2 weeks) is recorded as “did not have altered”. In data set [3], the blood-brain barrier penetration entry is listed as “can penetrate the blood-brain barrier”. In addition, in data set [3], the toxicity entry was “no toxicity”. For the same substance, the dendritic spine density result is “significantly increased” in the data set with dendritic spines [4] (CA1 region of the hippocampus); “significantly increased” with dendritic spines [4] (cortical layers II/III); “improved” with dendritic spines [5] (cortical neurons, 13-16 months, 30 mg/kg i.p. daily, 2 weeks). Moreover, the “spine morphology (spine head width and spine length)” value with dendritic spines [4] (hippocampus CA1 and cortical layers II/III) is recorded as “did not alter”. In addition, the dendritic spine length entry with dendritic spines [5] (13-16 months) is reported as “neither the width nor length of dendritic spines changed”; with dendritic spines [5] (cortical layers II/III and hippocampus, 6-10 months, 30 mg/kg) it was “longer”. Also, the dendritic spine width entry with dendritic spines [5] (13-16 months) is reported as “neither the width nor length of dendritic spines changed”; in the data set with dendritic spines [5] (cortex and hippocampus, 6-10 months, 30 mg/kg) it was “wider”. For the same substance, the hippocampal spine density result with dendritic spines [5] (CA1, 13-16 months, 30 mg/kg daily, 2 weeks) is recorded as “only a trend toward an increase”. Moreover, the “overall density of dendritic spines” value in the data set on dendritic spines [5] (hippocampus CA1, 2-3 months, 30 mg/kg i.p. daily, 2 weeks) is given as “significantly increased”; in the data set with dendritic spines [5] (hippocampus CA1, 6-10 months, 30 mg/kg i.p. daily, 2 weeks) it was “significantly increased”; in the data set on dendritic spines [5] (layers II/III of the cortex, 2-3 months, 30 mg/kg i.p. daily, 2 weeks), “significantly increased”; in the data set with dendritic spines [5] (layers II/III of the cortex, 6-10 months, 30 mg/kg i.p. daily, 2 weeks), “significantly increased”.
